# Values quoted from earlier work as cited in US20060029543A1, “Treatment of B-cell lymphoma” (priority 2004, published 2006).
# Details: received more than 200 milligrams per meter squared of doxorubicin
compound,measurement,value
COc1cccc2c1C(=O)c1c(O)c3c(c(O)c1C2=O)C[C@@](O)(C(=O)CO)C[C@@H]3O[C@H]1C[C@H](N)[C@H](O)[C@H](C)O1 [doxorubicin],"Left ventricular dysfunction, long-term survivors affected",8 of 57
